Data taken from paper PMC4855137, “Raffinose, a plant galactoside, inhibits Pseudomonas aeruginosa biofilm formation via binding to LecA and decreasing cellular cyclic diguanylate levels” (Scientific Reports, 2016).
pKd: −log10 of the molar value.

Key:
[1] = molecular target: T1, LecA (PA-IL) (Pseudomonas aeruginosa, UniProt Q05097); test: isothermal titration calorimetry; CPMG NMR competition with raffinose; assay type: binding
[2] = molecular target: T1, LecA (PA-IL); test: isothermal titration calorimetry; 1D relaxation-edited (CPMG) NMR with galactose competition; assay type: binding

T1 sequence (Q05097 2-122): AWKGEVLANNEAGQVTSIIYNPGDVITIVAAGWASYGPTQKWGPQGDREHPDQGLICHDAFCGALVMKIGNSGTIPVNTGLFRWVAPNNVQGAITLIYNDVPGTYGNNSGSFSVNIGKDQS

Row | SMILES | pKd [1] | pKd [2]
1 | OC[C@H]1OC(O)[C@H](O)[C@@H](O)[C@H]1O (stereo partly drawn) [D-galactose] | 4.33 | –
2 | OC[C@H]1O[C@H](OC[C@H]2O[C@H](O[C@]3(CO)O[C@H](CO)[C@@H](O)[C@@H]3O)[C@H](O)[C@@H](O)[C@@H]2O)[C@H](O)[C@@H](O)[C@H]1O [raffinose] | – | 4.49
